Measurements taken from the NIST ThermoML archive (doi:10.1021/je100832h).

Conditions: Liquid; for mass density: 101.32 kPa, Vibrating tube method; for vapor or sublimation pressure: Ebulliometric method (Recirculating still)

CCCCCCCCCC [decane]
Conditions | mass density [kg/m3] | vapor or sublimation pressure [kPa]
291.15 K | 731.22 | –
298.15 K | 726.2 | –
318.15 K | 710.9 | –
328.15 K | 703.34 | –
386.86 K | – | 15.86
390.21 K | – | 17.94
393.85 K | – | 20.43
397.62 K | – | 23.28
400.9 K | – | 26.08
403.65 K | – | 28.54
406.2 K | – | 31.1
408.52 K | – | 33.59
411.2 K | – | 36.58
413.6 K | – | 39.44
414.92 K | – | 41.05
416.83 K | – | 43.54
419.01 K | – | 46.44
420.74 K | – | 48.95
422.51 K | – | 51.55
424.11 K | – | 54.05
425.85 K | – | 56.84
427.5 K | – | 59.6
429.13 K | – | 62.41
430.69 K | – | 65.23
432.29 K | – | 68.16
433.61 K | – | 70.76
435.15 K | – | 73.71
436.57 K | – | 76.61
437.52 K | – | 78.69
438.92 K | – | 81.7
440.19 K | – | 84.46
441.29 K | – | 86.98
442.23 K | – | 89.2
443.35 K | – | 91.83
444.37 K | – | 94.3
444.8 K | – | 95.2
446.16 K | – | 98.41
446.55 K | – | 99.37
446.97 K | – | 100.62
447.3 K | – | 101.32
448.21 K | – | 103.75
449.29 K | – | 106.58
450.33 K | – | 109.39
451.31 K | – | 112.15
452.1 K | – | 114.36
452.89 K | – | 116.67
453.87 K | – | 119.46
454.7 K | – | 121.94
455.13 K | – | 123.25
455.92 K | – | 125.63
456.82 K | – | 128.4
457.59 K | – | 130.81
458.4 K | – | 133.37
459.16 K | – | 135.82
460.02 K | – | 138.64
460.42 K | – | 140
461.26 K | – | 142.82
462.1 K | – | 145.65
463.1 K | – | 148.84
463.75 K | – | 151.4
464.39 K | – | 153.69
465.12 K | – | 156.4
465.77 K | – | 158.65
466.55 K | – | 161.57
467.33 K | – | 164.47
468.04 K | – | 167.22
468.81 K | – | 170.16
469.38 K | – | 172.45
470.03 K | – | 175.03
470.6 K | – | 177.34
471.2 K | – | 179.77
471.77 K | – | 182.08
472.23 K | – | 184.14
472.78 K | – | 186.39
473.35 K | – | 188.8
474.12 K | – | 191.58
474.81 K | – | 194.61
475.37 K | – | 197.04

CCOC(C)=O [ethyl acetate]
Conditions | mass density [kg/m3] | vapor or sublimation pressure [kPa]
291.15 K | 902.88 | –
297.17 K | – | 11.89
298.15 K | 894.4 | –
303.35 K | – | 16.04
306.25 K | – | 18.33
308.86 K | – | 20.64
310.67 K | – | 22.44
312.53 K | – | 24.34
315.44 K | – | 27.63
318.15 K | 869.6 | –
318.46 K | – | 31.33
321.01 K | – | 34.85
323.47 K | – | 38.43
324.8 K | – | 40.61
327.41 K | – | 44.98
328.15 K | 857.17 | –
329.77 K | – | 49.27
331.51 K | – | 52.56
333.07 K | – | 55.72
335.02 K | – | 59.91
336.33 K | – | 62.83
337.91 K | – | 66.49
339.09 K | – | 69.34
340.23 K | – | 72.26
341.69 K | – | 76.02
343.03 K | – | 79.83
344.11 K | – | 82.56
345.53 K | – | 86.85
346.86 K | – | 90.81
348.09 K | – | 94.63
348.75 K | – | 96.74
349.45 K | – | 98.97
349.56 K | – | 99.36
349.76 K | – | 100.07
349.93 K | – | 100.68
350.15 K | – | 101.32
351.12 K | – | 104.65
351.77 K | – | 106.84
352.12 K | – | 108.13
352.94 K | – | 111.21
353.91 K | – | 114.65
354.43 K | – | 116.46
354.93 K | – | 118.56
355.5 K | – | 120.68
355.91 K | – | 122.31
356.37 K | – | 124
357.35 K | – | 127.89
357.92 K | – | 130
358.74 K | – | 133.45
359.44 K | – | 136.34
360.03 K | – | 139.07
360.88 K | – | 142.55
361.73 K | – | 146.37
362.62 K | – | 150.43
363.72 K | – | 155.58
364.25 K | – | 157.94
364.81 K | – | 160.53
365.52 K | – | 163.99
366.29 K | – | 167.81
367 K | – | 171.33
367.64 K | – | 174.65
367.98 K | – | 176.37
368.83 K | – | 180.88
369.49 K | – | 184.43
370.07 K | – | 187.47
370.69 K | – | 190.92
371.5 K | – | 195.35
